# Literature values as cited in patent US20060188878A1, “Methods to predict ederma as a side effect of drug treatment” (priority 2002, published 2006).
# Test system: CML
# [1] = of 54 CML patients treated with 300 mg or more
structure (smiles),measurement,setting,value
Cc1ccc(NC(=O)c2ccc(CN3CCN(C)CC3)cc2)cc1Nc1nccc(-c2cccnc2)n1 [Imatinib],Patients with complete cytogenetic remission,[1],7
same,Patients with complete hematologic responses,[1],53
same,Patients with cytogenic responses,[1],29
same,Patients with major cytogenetic responses (0-35% of cells in metaphase positive for the Ph′ chromosome),[1],17
same,"Patients with major cytogenetic responses, percent",of the 54 patients who received the dose (300 mg or more),31%
